Drawing on US5580865A, “2,2-disubstituted cephem sulphones” (Farmitalia Carlo Erba S.r.l., priority 1992, dated 1996), this text covers kinact/KI and Ki for 16 molecules.

The target of the test is T1, human leukocyte elastase (HLE) (Homo sapiens, UniProt P08246).
T1 construct: purchased Calbiochem
T1 sequence (P08246 30-247 limits assumed): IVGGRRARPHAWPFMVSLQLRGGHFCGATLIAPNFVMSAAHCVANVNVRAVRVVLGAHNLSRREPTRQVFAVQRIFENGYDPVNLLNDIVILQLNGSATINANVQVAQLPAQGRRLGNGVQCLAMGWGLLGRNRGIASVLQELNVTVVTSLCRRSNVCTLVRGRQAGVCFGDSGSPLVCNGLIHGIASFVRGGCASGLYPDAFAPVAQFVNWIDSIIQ
Briefly: Kinetic parameters of HLE inhibition (fluorogenic substrate, steady-state KI^ss and K5/KI). In kind it is biochemical. The conditions noted are these: HLE (Calbiochem), 37° C., pH 7.4 phosphate buffer, 1% DMSO, 1% MeCN; for kinact/KI: read-out: K5 /KI (rate of formation of the HLE-inhibitor complex); for Ki: read-out: KI^ss (apparent dissociation constant of the HLE-inhibitor complex at steady state).

Description: Kinetic parameters of HLE (Calbiochem) were determined at 37° C., 0.027M pH 7.4 phosphate buffer, 1% DMSO, 1% MeCN, NaCl (I=0.15), by monitoring the release of 7-amino-4-methylcoumarin (fluorescence detection) from N-methoxysuccinyl-alanyl-prolyl-valyl-7-amido-4-methylcoumarin as the substrate, according to the equations: [formula] wherein [P], [I], [S]=product, inhibitor, and substrate concentration
Km =Michaelis constant for the enzyme substrate pair (independently determined under the same experimental conditions)

`CO[C@H]1C(=O)N2C(C(=O)C(C)(C)C)=C(C)C(C)(Sc3nnnn3C)S(=O)(=O)[C@H]12` (stereo partly drawn) [Compound 5, 4-tert-Butylcarbonyl-2,3-dimethyl-7α-methoxy-2-(1-methyl-1,2,3,4-tetrazol-5-yl)thio-3-cephem 1,1-dioxide]: the kinact/KI was found to be 570000 M⁻¹ s⁻¹ and the Ki worked out at 1.9 nM.

`CO[C@H]1C(=O)N2C(C(=O)C(C)(C)C)=C(C)C(Cc3ccc([N+](=O)[O-])cc3)(Sc3nnnn3C)S(=O)(=O)[C@H]12` (stereo partly drawn) [Compound 6, 4-tert-Butylcarbonyl-7α-methoxy-3-methyl-2-(1-methyl-1,2,3,4-tetrazol-5-yl)thio-2-(4-nitrobenzyl)-3-cephem 1,1-dioxide]: the kinact/KI is 600000 M⁻¹ s⁻¹ and the Ki turned out to be 1 nM.

In the case of `C=CCC1(Sc2nnnn2C)C(C)=C(C(=O)C(C)(C)C)N2C(=O)[C@H](OC)[C@H]2S1(=O)=O` (stereo partly drawn) [Compound 7, 2-Allyl-4-tert-butylcarbonyl-7α-methoxy-3-methyl-2-(1-methyl-1,2,3,4-tetrazol-5-yl)thio-3-cephem 1,1-dioxide], the kinact/KI turned out to be 360000 M⁻¹ s⁻¹ and the Ki was found to be 3 nM.

As to `CO[C@H]1C(=O)N2C(C(=O)C(C)(C)C)=C(C)C(Cc3ccccc3)(Sc3nnnn3C)S(=O)(=O)[C@H]12` (stereo partly drawn) [Compound 10, 2-Benzyl-4-tert-butylcarbonyl-7α-methoxy-3-methyl-2-(1-methyl-1,2,3,4-tetrazol-5-yl)thio-3-cephem 1,1-dioxide], the kinact/KI came to 110000 M⁻¹ s⁻¹ and the Ki was 4 nM.

As for `CO[C@H]1C(=O)N2C(C(=O)C(C)(C)C)=C(C)C(C)(Sc3nc(=O)c(OC(c4ccccc4)c4ccccc4)nn3C)S(=O)(=O)[C@H]12` (stereo partly drawn) [Compound 11, 2-(6-Benzhydryloxy-2-methyl-5-oxo-2,5-dihydro-1,2,4-triazin-3-yl)thio-4-tert-butylcarbonyl-2,3-dimethyl-7α-methoxy-3-cephem 1,1-dioxide], the kinact/KI amounted to 1.3e+07 M⁻¹ s⁻¹ and the Ki was under 1 nM.

For the molecule `CO[C@H]1C(=O)N2C(C(=O)C(C)(C)C)=C(C)C(C)(Sc3nc(=O)c(O)nn3C)S(=O)(=O)[C@H]12` (stereo partly drawn) [Compound 12, 2-(2,5-Dihydro-6-hydroxy-2-methyl-5-oxo-1,2,4-triazin-3-yl)thio-4-tert-butylcarbonyl-2,3-dimethyl-7α-methoxy-3-cephem 1,1-dioxide], the kinact/KI is 37000 M⁻¹ s⁻¹ and the Ki was determined as 30 nM.

With `COc1nn(C)c(SC2(C)C(C)=C(C(=O)C(C)(C)C)N3C(=O)[C@H](OC)[C@H]3S2(=O)=O)nc1=O` (stereo partly drawn) [Compound 15, 2-(2,5-Dihydro-6-methoxy-2-methyl-5-oxo-1,2,4-triazin-3-yl)thio-4-tert-butylcarbonyl-2,3-dimethyl-7α-methoxy-3-cephem 1,1-dioxide], the kinact/KI came out at 1.4e+06 M⁻¹ s⁻¹.

On to `CO[C@H]1C(=O)N2C(C(=O)C(C)(C)C)=C(C)C(Cc3ccccc3)(Sc3nc(=O)c(O)nn3C)S(=O)(=O)[C@H]12` (stereo partly drawn) [Compound 18, 2-Benzyl-2-(2,5-dihydro-6-hydroxy-2-methyl-5-oxo-1,2,4-triazin-3-yl)thio-4-tert-butylcarbonyl-7α-methoxy-3-methyl-3-cephem 1,1-dioxide], for which the kinact/KI is 14000 M⁻¹ s⁻¹ and the Ki was 16 nM.

For the molecule `C=CCC1(Sc2nc(=O)c(OC(c3ccccc3)c3ccccc3)nn2C)C(C)=C(C(=O)C(C)(C)C)N2C(=O)[C@H](OC)[C@H]2S1(=O)=O` (stereo partly drawn) [Compound 24, 2-allyl-2-(6-benzhydryloxy-2,5-dihydro-2-methyl-5-oxo-1,2,4-triazin-3-yl)thio-4-tert-butylcarbonyl-7α-methoxy-3-methyl-3-cephem 1,1-dioxide], the kinact/KI came to 93000 M⁻¹ s⁻¹ and the Ki amounted to 8 nM.

`CO[C@H]1C(=O)N2C(C(=O)C(C)(C)C)=C(CSc3nnnn3C)C(C)(Sc3nnnn3C)S(=O)(=O)[C@H]12` (stereo partly drawn) [Compound 28, 4-tert-Butylcarbonyl-7α-methoxy-2-methyl-2-(1-methyl-1,2,3,4-tetrazol-5-yl)thio-3-(1-methyl-1,2,3,4-tetrazol-5-yl)thiomethyl-3-cephem 1,1-dioxide]: the kinact/KI was determined as 1.4e+06 M⁻¹ s⁻¹ and the Ki came out at 3 nM.

Turning to `CO[C@H]1C(=O)N2C(C(=O)C(C)(C)C)=C(C)C(Cc3ccc(C(=O)OC(c4ccccc4)c4ccccc4)cc3)(Sc3nnnn3C)S(=O)(=O)[C@H]12` (stereo partly drawn) [Compound 30, 2-(4-benzhydryloxycarbonylbenzyl)-4-tert-Butylcarbonyl-7α-methoxy-3-methyl-2-(1-methyl-1,2,3,4-tetrazol-5-yl)thio-3-cephem1,1-dioxide], the kinact/KI is 77000 M⁻¹ s⁻¹ and the Ki was 1 nM.

With `C=CCOC(=O)c1ccc(CC2(Sc3nnnn3C)C(C)=C(C(=O)C(C)(C)C)N3C(=O)[C@H](OC)[C@H]3S2(=O)=O)cc1` (stereo partly drawn) [Compound 31, 2-(4-allyloxycarbonylbenzyl)-4-tert-butylcarbonyl-7α-methoxy-3-methyl-2-(1-methyl-1,2,3,4-tetrazol-5-yl)thio-3-cephem 1,1-dioxide], the kinact/KI came to 560000 M⁻¹ s⁻¹ and the Ki was determined as 1.3 nM.

In the case of `CO[C@H]1C(=O)N2C(C(=O)C(C)(C)C)=C(C)C(Cc3ccc(C(=O)O)cc3)(Sc3nnnn3C)S(=O)(=O)[C@H]12` (stereo partly drawn) [Compound 32, 4-tert-Butylcarbonyl-2-(4-carboxybenzyl)-7α-methoxy-3-methyl-2-(1-methyl-1,2,3,4-tetrazol-5-yl)thio-3-cephem 1,1-dioxide], the kinact/KI was found to be 200000 M⁻¹ s⁻¹ and the Ki stood at 7 nM.

For the molecule `CO[C@H]1C(=O)N2C(C(=O)C(C)(C)C)=C(C)C(Cc3ccccc3)(Sc3nc(=O)c(OCc4ccccc4)nn3C)S(=O)(=O)[C@H]12` (stereo partly drawn) [Compound 46, 2-Benzyl-2-(6-benzyloxy-2,5-dihydro-2-methyl-5-oxo-1,2,4-triazin-3-yl)thio-4-tert-butylcarbonyl-7α-methoxy-3-methyl-3-cephem 1,1-dioxide], the kinact/KI is 160000 M⁻¹ s⁻¹ and the Ki came out at 4 nM.

Take `CO[C@H]1C(=O)N2C(C(=O)C(C)(C)C)=C(CSc3nnnn3C)C(Sc3nnnn3C)S(=O)(=O)C12` (some centres unmarked) [Ref. 2, reference compound]: the Ki was found to be 93 nM.

In the case of `CO[C@H]1C(=O)N2C(C(=O)N3CCCC3)=C(CSc3nc(=O)c(O)nn3C)CS(=O)(=O)[C@H]12` [Ref. 3, reference compound], the kinact/KI stood at 1500 M⁻¹ s⁻¹.
